Data as given in US11400104B2, “Skeletal removal of bisphosphonates” (The Regents of the University of California, priority 2016, dated 2022).
Entries after “also recorded” stand apart in the source; their conditions may differ.

Test system: ZOL-induced mouse BRONJ model
Test: ZOL-induced mouse BRONJ/ONJ model (ZOL IV injection followed by maxillary first molar extraction)
Format: in vivo
Protocol: AF647-ZOL was applied by intra-oral injection or IV injection 1 day prior to tooth extraction. FIG. 16B are images of mouse maxilla and the oral mucosa inflammation and swelling (white dotted lines, left and right panels) with various degrees of jawbone exposure (arrow) at the tooth extraction site of ZOL-treated mice (BRONJ control: n−4). […]
Panel A is a diagram of the experimental time line. Mice treated by IV injection of ZOL (500 μg/kg) received an intra-oral injection of AF647-ZOL, MHDP or ETI (etidronate) one day prior to maxillary 1″ molar extraction. The development of ONJ was evaluated 14 days after tooth extraction.
The C57BL/6J (B6) mice model of ONJ is used. The consistent tissue source in this study is mouse maxillary bone with or without tooth extraction, as well as femurs, mandibles and L4/L5 lumber bones. Tooth extraction animal models for studying wound healing in mice have been well established in our and other laboratories. Systemic bisphosphonate treatment is accomplished by IV injection and the proposed local application of FL-BP is accomplished by intraoral injection to gingival/palatal tissue of mouse maxilla. Mice are subjected to maxillary molar extraction. After anesthesia and vital signs checked, the animal is placed on a bed supporting the isoflurane tubing while keeping the mouth opening. Ophthalmic ointment (bland, e.g., Lacrilube) is applied. The maxillary molar area is wiped with 0.12% Chlorhexidine gluconate solution (Peridex, oral rinse). An autoclaved dental explorer is used as an exodontia elevator after careful reflection of the cervical mucosa to minimize post-extraction discomfort. An autoclaved cotton swab is placed on the extraction socket until the initial blood coagulation is established. Maxillary 1st molar is then extracted unilaterally from so that the remaining untreated side can be utilized for chewing. In our previous experiments, the entire procedure takes about 5-15 minutes. […]
In a preliminary study female B6 mice were injected 500 μg/Kg ZOL (equivalent to 200 μl of 350 μM ZOL) via tail vein and one week later, maxillary left first molar was extracted. […]
Therefore, as schematically shown in FIG. 19B mouse maxillae were treated with ZOL and then either 2 μg of MHDP was orally injected to the site of the molar to be extracted or 100 μg of MHDP was IV injected and the sites of molar extraction of treated mouse maxilla were compared to controls.

[1] = AF647-ZOL IV 500 μM×100 μL 1 day before extraction, 2 weeks after extraction

For `CC1(C)C(C=CC=CC=C2N(CCCS(=O)(=O)O)c3ccc(S(=O)(=O)O)cc3C2(C)CCCCCC(=O)NCC(O)C[n+]2ccn(CC(O)(P(=O)(O)O)P(=O)(O)O)c2)=[N+](CCCS(=O)(=O)O)c2ccc(S(=O)(=O)O)cc21` (centres unmarked) [AF647-ZOL], the “histology of maxilla at the tooth extraction site: ONJ-like lesion” value (2 weeks after extraction, one time oral injection in ZOL-mice, FIG. 20) was “did not develop an ONJ-like lesion”, the “BRONJ-like lesions, jawbone exposure” value [1] was “jawbone exposure was much attenuated; also recorded: attenuated BRONJ-like lesions” and the oral mucosa inflammation/swelling [1] was “some mice which received an AF647-ZOL IV injection showed signs of oral mucosa inflammation/swelling”. For the same compound, the “prevention of BRONJ, tooth extraction wound healing” value (AF647-ZOL intra-oral 250 μM×2 μL 1 day before extraction, 2 weeks after extraction) was “complete prevention of BRONJ; also recorded: excellent tooth extraction wound healing without chronic inflammation or swelling” and the “development of ONJ-like lesions at the tooth extraction sites” value (ZOL 500 μg/kg IV, intra-oral injection one day prior to extraction, 14 days after extraction, FIG. 21) was “appeared to be prevented”.
